# Results taken from patent publication US20070270332A1, “METHODS AND ASSAYS USEFUL IN THE TREATMENT OF ALCOHOL DEPENDENCE OR ALCOHOL ABUSE” (priority 1998, published 2007).
# pKi: −log10 of the molar value. Where two headings read alike, the source gives them in different places.
# Assays:
# [1] = test system: alcohol preferring Syrian golden hamsters; experiment: Ethanol intake suppression (antidipsotropic activity) in alcohol preferring Syrian golden hamsters; details: for ethanol intake suppression: equivalent doses (0.07 meq/hamster/day), FIG. 1; for ETOH Intake Suppression, %: ethanol-preferring golden hamsters, equivalent doses, i.p.; for suppression of hamster ethanol intake: i.p. dose or equivalent doses
# [2] = test system: hamster liver mitochondria (MAO/ALDH pathway, 5-HT as substrate); experiment: Mitochondria-catalyzed 5-HT metabolism (5-HIAL, 5-HIAA, 5-HT depletion), hamster liver mitochondria; assay type: biochemical; details: for inhibition of 5-HIAA formation: isolated hamster liver mitochondria
# Text: (§1) Hamster liver mitochondrial preparations were obtained by the well-known method of Johnson & Lardy (see John, D. & Lardy, H. (1967) Meth. Enzymol. 10, 94). The integrity of these mitochondrial preparations, evaluated by measuring their latent glutamate dehydrogenase activity according to the methods of Beaufay, H., and Bendall, D. S., Baudhuin, P. & deDuve, C. (1959) J. Cell Biol. 73, 623-628 before and after the metabolic study, were over 97% and 93%, respectively.
# (§2) Reactions were initiated by the addition of mitochondria and allowed to proceed in a 37° C. shaking water bath for 30 min. Reactions were terminated by the addition of 0.05 ml each of ice-cold 1 M HClO4 and 10 mM EDTA. The samples were kept on ice for 1 hour followed by centrifugation (12,000 rpm) in a microcentrifuge (Microspin 24S, Sorvall) for 15 min. DA, 5-HT, and their major metabolites in the supernatant were analyzed directly by HPLC.
# The HPLC system used in this study consisted of a BAS Sample Sentinel Autosampler with refrigerated (4° C.) sample compartment, PM80 solvent delivery system, and a LC-26 on-line degasser. The detector is a LC-4C amperometric controller with a CC-5 cross-flow thin-layer (0.005″) electrochemical cell composed of glassy carbon and silver/silver chloride reference electrode (Bioanlytical Systems, Inc., West Lafayette, Ind.). For routine analysis, the potential and sensitivity were set at 650 mV and 20 nA full scale, respectively. Column temperature was maintained with a Waters Temperature Control Module (Waters, Milford, Mass.). DA and 5-HT were analyzed on a BAS phase II ODS-3, 3 μm, 3.2×100 mm column. […] DOPAL, DOPAC, 5-HIAL and 5-HIAA were analyzed on a Beckman ultrasphere ODS-5, 5μ, 4.6×250 mm column. […] Data were collected and analyzed with a Nelson data collection system (Perkin-Elmer) or a Waters 740 Data Module. The effect of a test compound on 5-HIAL or DOPAL accumulation measured at five different concentrations were averaged and presented as % of control.
# rats = details: cited from earlier work
# [3] = test system: hamster liver mitochondria (MAO/ALDH pathway, DA as substrate); experiment: Mitochondria-catalyzed DA metabolism (DOPAC formation), hamster liver mitochondria; assay type: biochemical; details: isolated hamster liver mitochondria
# Text: as §1
# as §2, with “The samples were kept on ice for 1 hour followed by centrifugation (12,000 rpm) in a microcentrifuge (Microspin 24S, Sorvall) for 15 min.” left out
# The HPLC system used in this study consisted of a BAS Sample Sentinel Autosampler with refrigerated (4° C.) sample compartment, PM80 solvent delivery system, and a LC-26 on-line degasser. […] DA and 5-HT were analyzed on a BAS phase II ODS-3, 3 μm, 3.2×100 mm column. […] DOPAL, DOPAC, 5-HIAL and 5-HIAA were analyzed on a Beckman ultrasphere ODS-5, 5μ, 4.6×250 mm column. […] Data were collected and analyzed with a Nelson data collection system (Perkin-Elmer) or a Waters 740 Data Module. The effect of a test compound on 5-HIAL or DOPAL accumulation measured at five different concentrations were averaged and presented as % of control.
# [4] = target: T1, Human Mitochondrial ALDH (ALDH-2) (Homo sapiens, UniProt P05091); details: literature; cited from earlier work
# T1 construct: Human, hamster, and rat liver mitochondrial and cytosolic ALDH isozymes were purified as described in Klyosov; from tissue; host or cells: human liver
# T1 sequence (P05091 18-517): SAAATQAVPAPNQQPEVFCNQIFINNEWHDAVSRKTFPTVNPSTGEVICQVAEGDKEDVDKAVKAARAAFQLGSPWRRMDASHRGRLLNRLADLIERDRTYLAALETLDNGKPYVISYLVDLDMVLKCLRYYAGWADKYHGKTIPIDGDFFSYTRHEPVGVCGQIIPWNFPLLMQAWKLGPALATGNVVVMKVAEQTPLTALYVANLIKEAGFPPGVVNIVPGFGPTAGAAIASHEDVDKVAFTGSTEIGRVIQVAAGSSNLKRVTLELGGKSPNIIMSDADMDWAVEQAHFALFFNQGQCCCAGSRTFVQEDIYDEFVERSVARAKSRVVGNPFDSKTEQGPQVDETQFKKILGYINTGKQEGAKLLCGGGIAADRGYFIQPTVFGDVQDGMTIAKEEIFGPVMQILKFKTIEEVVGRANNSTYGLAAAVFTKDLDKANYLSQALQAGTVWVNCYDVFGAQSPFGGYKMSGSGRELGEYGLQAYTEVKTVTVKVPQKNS
# [5] = target: T1, Human Mitochondrial ALDH (ALDH-2); experiment: Inhibition of human mitochondrial ALDH (ALDH-2), competitive and noncompetitive inhibition constants; assay type: biochemical; details: for ALDH-2 inhibitory potency, in words: comparison with daidzin, daidzein or another compound
# rat liver mitochondria = experiment: Mitochondria-catalyzed 5-HIAA formation, rat liver mitochondria; details: same concentration range
# [6] = human mitochondrial ALDH, read-out: ALDH-2 Ki (competitive inhibition constant)
# [7] = human mitochondrial ALDH, read-out: ALDH-2 αKi (noncompetitive inhibition constant)
"pKi [5, 6]","pKi [5, 7]",SMILES,ethanol intake suppression [1],"ETOH Intake Suppression, % [1] [%]",other results
,,"O=c1c(-c2ccc(O)cc2)coc2cc(O)ccc12 [Compound 1, daidzein]",−30%,32,suppression of hamster ethanol intake [1]: 32%
,,"O=c1c(-c2ccc(O)cc2)coc2cc(O[C@@H]3O[C@H](CO)[C@@H](O)[C@H](O)[C@H]3O)ccc12 [Compound 2, daidzin]",> 60%,64,suppression of hamster ethanol intake [1]: 64%; effect on mitochondria-catalyzed 5-HT depletion ([2]; at concentrations that significantly inhibit 5-HIAA formation): little or no effect; inhibition of 5-HIAA formation [2]: potently inhibit the formation of 5-hydroxyindole-3-acetic acid (5-HIAA); suppression of ethanol consumption in rats (rats): confirmed; inhibition of DOPAC formation [3]: potently inhibit; inhibition of human mitochondrial aldehyde dehydrogenase (ALDH-2) [4]: potent and selective inhibitor
,,"O=C(O)CCCCCOc1ccc2c(=O)c(-c3ccc(O)cc3)coc2c1 [Compound 3, 7-O-[ω-carboxypentyl]-daidzein]",,70,suppression of hamster ethanol intake [1]: about 70%
8.05,6.85,"O=C(O)CCCCCCOc1ccc2c(=O)c(-c3ccc(O)cc3)coc2c1 [Compound 4, 7-O-[ω-carboxyhexyl]-daidzein]",,69,suppression of hamster ethanol intake [1]: about 70%
8.40,7.30,O=C(O)CCCCCCCCCOc1ccc2c(=O)c(-c3ccc(O)cc3)coc2c1 [Compound 5],,84,
,,O=C(O)CCCCCCCCCCOc1ccc2c(=O)c(-c3ccc(O)cc3)coc2c1 [Compound 6],,86,
,,O=c1c(-c2ccc(O)cc2)coc2cc(OCCC3OCCCO3)ccc12 [Compound 8],−30%,32,
,7.15,"O=c1c(-c2ccc(O)cc2)coc2cc(OCCCCCCBr)ccc12 [Compound 10, 7-O-(6-bromohexyl)-daidzein]",only marginally active,14,"pKi ([5]; read-out: Ki, human ALDH-2): 8.52"
,7.10,"CC[N+](CC)(CC)CCCCCCOc1ccc2c(=O)c(-c3ccc(O)cc3)coc2c1 [Compound 11, 7-O-(triethyl-6-aminohexyl)-daidzein]",,,"pKi ([5]; read-out: Ki, human ALDH-2): 8.30"
7.44,6.22,"NCCCCCCOc1ccc2c(=O)c(-c3ccc(O)cc3)coc2c1 [Compound 13, 7-O-(6-aminohexyl)-daidzein]",did not suppress ethanol intake,,
7.10,5.80,"CC[N+](CC)(CC)CCOc1ccc2c(=O)c(-c3ccc(O)cc3)coc2c1 [Compound 15, 7-O-(triethyl-6-aminoethyl)-daidzein]",,,
5.97,4.97,"O=C(CCl)Oc1ccc2c(=O)c(-c3ccc(O)cc3)coc2c1 [Compound 16, 7-O-daidzein-2-chloroacetate]",,,"ALDH-2 inhibitory potency, in words [5]: less potent inhibitors relative to daidzin"
5.74,4.70,"O=C(CBr)Oc1ccc2c(=O)c(-c3ccc(O)cc3)coc2c1 [Compound 17, 7-O-daidzein-2-bromoacetate]",,,"ALDH-2 inhibitory potency, in words [5]: less potent inhibitors relative to daidzin"
,,"O=c1c(-c2ccc(O)cc2)coc2c([C@@H]3O[C@H](CO)[C@@H](O)[C@H](O)[C@H]3O)c(O)ccc12 [Compound 20, Puerarine]",,0,"suppression of ethanol consumption in hamsters, in words ([1]; hamsters): not hamsters; suppression of hamster ethanol intake [1]: do not exert any significant effect on ethanol intake; inhibition of 5-HIAA formation (rat liver mitochondria): does inhibit 5-HIAA formation; inhibition of 5-HIAA formation [2]: does not inhibit 5-HIAA formation; suppression of ethanol consumption in rats (rats): suppresses ethanol consumption in rats"
4.46,3.96,"O=c1cc(-c2ccccc2)oc2cc(O)cc(O)c12 [Compound 21, Chrysin, reference compound]",,0,
4.46,3.57,"O=c1cc(-c2ccccc2)oc2c(O)c(O)ccc12 [Compound 22, 7,8-Dihydroxyflavone]",did not suppress ethanol intake,0,suppression of hamster ethanol intake [1]: do not exert any significant effect on ethanol intake
,,C=CCOc1ccc2c(=O)c(-c3ccc(O)cc3)coc2c1 [allyl],did not suppress ethanol intake,,
,,O=c1c(-c2ccc(O)cc2)coc2cc(O)cc(O)c12 [genestein],did not suppress ethanol intake,,

SMILES,"pKi [5, 6]","pKi [5, 7]",ethanol intake suppression [1],"ETOH Intake Suppression, % [1] [%]",other results
CCOc1ccc2c(=O)c(-c3ccc(O)cc3)coc2c1 [Compound 7],7.46,6.25,did not suppress ethanol intake,,
"CC(Br)CCCCC(=O)Oc1ccc2c(=O)c(-c3ccc(O)cc3)coc2c1 (centres unmarked) [Compound 14, 7-O-daidzein-6-bromoheptanoate]",7.70,6.59,,,"ALDH-2 inhibitory potency, in words [5]: less potent than 7-O-(6-bromohexyl)-daidzein"
"CN(C)CCC(=O)Oc1ccc2c(=O)c(-c3ccc(O)cc3)coc2c1 [Compound 18, 7-O-daidzein-3-dimethylaminopropionate]",5.76,4.62,,,"ALDH-2 inhibitory potency, in words [5]: less potent inhibitors relative to daidzin"
